Experimental data reported in paper PMC2764262 (Experimental cell research, 2008).

What was measured:
[1] = test system: human brain microvascular endothelial cells (HBMEC); assay: BrdU labeling assay, cell proliferation; format: cell-based; conditions: 25 µM peptide, 48 h, 0.1% FBS, no FGF-2
[2] = test system: human brain microvascular endothelial cells (HBMEC); assay: BrdU labeling assay, proliferation induced by FGF-2; format: cell-based; conditions: FGF-2 20 ng/ml, 48 h
[3] = Circular dichroism spectroscopy, secondary structure; format: physicochemical; conditions: 1 mg/ml in Hanks balanced salt solution, 37 °C, up to day 6 (WT: by day 3)
FGF-2 = FGF-2 production by Western blotting; format: cell-based, human; conditions: HBMEC, 5 µM peptide, 18 h; Western blot
FGFR-1 = FGFR-1 phosphorylation; format: cell-based, human; conditions: HBMEC, 5 µM peptide, FGF-2 20 ng/ml 15 min; IP anti-FGFR-1, anti p-Tyr
[4] = test system: human brain microvascular endothelial cells (HBMEC); assay: Pseudo-capillary sprouting, microcarrier culture in fibrin gel; format: cell-based; conditions: HBMEC on microcarriers in fibrin gel, FGF-2 20 ng/ml, 5 µM peptide, day 2
Akt = Akt phosphorylation by Western blotting; format: cell-based, human; conditions: HBMEC, 5 µM peptide, 30 min, FGF-2 20 ng/ml; Western blot
[5] = Peptide solubility on aging; conditions: 1 mg/ml in Hanks' Balanced Salt Solution, 37 °C, up to 6 days; O.D. 280 nm after centrifugation
caspase-3 = assay: Cleaved caspase-3 expression by Western blotting; format: cell-based, human; conditions: HBMEC, 5 µM peptide, 18 h, FGF-2 20 ng/ml

With “E22Q: Synthetic Aβ (1–40) peptide bearing the E22Q (Dutch) mutation” the “inhibition of cell proliferation (BrdU incorporation)” value [1] was “total inhibition”, the “inhibition of FGF-2-induced BrdU incorporation” value ([2]; 1 µM peptide) was 60% and the “inhibition of FGF-2-induced BrdU incorporation” value ([2]; concentrations higher than 1 µM (up to 25 µM)) was > 90%. For the same substance, the “secondary structure by CD on further incubation” value [3] was “the β-sheet content increased”, the FGF-2 expression (FGF-2) was “decreased expression” and the “FGFR-1 phosphorylation in response to FGF-2” value (FGFR-1) was “reduced phosphorylation to levels observed in quiescent cells”. For the same substance, the “reduction of pseudo-capillary sprouting area” value [4] was “nearly suppressed”, the “FGF-2-induced Akt phosphorylation” value (Akt) was “marked reduction” and the “solubility relative to the other peptides” value [5] was “lower values than those of WT”. The “caspase-3 activation with concomitant FGF-2 administration” value (caspase-3) was “failed to prevent caspase-3 activation”.
